Assay results reported in the supplement of paper PMC10307832.

Legend:
Test in all cases: relative viability (nuclei count vs DMSO), 5 days (fraction); higher = more cells survive
NCI-H2342 = system: NCI-H2342
In short: (§1)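 Medians of duplicate plates are given as relative viability. That measure is the nuclei count in treated wells divided by the count in vehicle wells. Counts were taken on 4× images of lung cancer cell lines in 1536-well plates, 5 days after pin-tool dosing the day after seeding with one drug alone or a fixed anchor-drug dose plus five library-drug doses (not always all listed) in √10 steps.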

COR-L23 = system: COR-L23
In short: as §1

NCI-H661 = system: NCI-H661
In short: as §1

NCI-H1651 = system: NCI-H1651
In short: as §1

LXF-289 = system: LXF-289
In short: as §1

NCI-H1915 = system: NCI-H1915
In short: as §1

NCI-H520 = system: NCI-H520
In short: as §1

ABC-1 = system: ABC-1
In short: as §1

NCI-H2347 = system: NCI-H2347
In short: as §1

COR-L 105 = system: COR-L 105
In short: as §1

LCLC-97TM1 = system: LCLC-97TM1
In short: as §1

NCI-H460 = system: NCI-H460
In short: as §1

CAL-12T = system: CAL-12T
In short: as §1

HOP-62 = system: HOP-62
In short: as §1

NCI-H838 = system: NCI-H838
In short: as §1

NCI-H1993 = system: NCI-H1993
In short: as §1

NCI-H441 = system: NCI-H441
In short: as §1

NCI-H522 = system: NCI-H522
In short: as §1

NCI-H1437 = system: NCI-H1437
In short: as §1

NCI-H2023 = system: NCI-H2023
In short: as §1

NCI-H2009 = system: NCI-H2009
In short: as §1

PC-3 [JPC-3] = system: PC-3 [JPC-3]
In short: as §1

A-427 = system: A-427
In short: as §1

## Oc1nc(-c2ccc(C(F)(F)F)cc2)nc2c1CSCC2 [XAV939] + O=C(CCCCCCC(=O)Nc1ccccc1)NO [Vorinostat] (partner 1 µM)
NCI-H2342; first compound 0.08 µM
  relative viability: 0.791
NCI-H2342; first compound 0.253 µM
  relative viability: 0.705
NCI-H2342; first compound 0.8 µM
  relative viability: 0.768
NCI-H2342; first compound 2.53 µM
  relative viability: 0.533
COR-L23; first compound 0.08 µM
  relative viability: 0.443
COR-L23; first compound 0.253 µM
  relative viability: 0.472
COR-L23; first compound 0.8 µM
  relative viability: 0.483
COR-L23; first compound 2.53 µM
  relative viability: 0.39
NCI-H661; first compound 0.08 µM
  relative viability: 0.807
NCI-H661; first compound 0.253 µM
  relative viability: 0.674
NCI-H661; first compound 0.8 µM
  relative viability: 0.777
NCI-H661; first compound 2.53 µM
  relative viability: 0.777
NCI-H1651; first compound 0.08 µM
  relative viability: 0.546
NCI-H1651; first compound 0.253 µM
  relative viability: 0.529
NCI-H1651; first compound 0.8 µM
  relative viability: 0.555
NCI-H1651; first compound 2.53 µM
  relative viability: 0.512
LXF-289; first compound 0.08 µM
  relative viability: 0.728
LXF-289; first compound 0.253 µM
  relative viability: 0.68
LXF-289; first compound 0.8 µM
  relative viability: 0.804
LXF-289; first compound 2.53 µM
  relative viability: 0.8
NCI-H1915; first compound 0.08 µM
  relative viability: 0.603
NCI-H1915; first compound 0.253 µM
  relative viability: 0.51
NCI-H1915; first compound 0.8 µM
  relative viability: 0.5
NCI-H1915; first compound 2.53 µM
  relative viability: 0.498
NCI-H520; first compound 0.08 µM
  relative viability: 0.722
NCI-H520; first compound 0.8 µM
  relative viability: 0.747
NCI-H520; first compound 2.53 µM
  relative viability: 0.717
ABC-1; first compound 0.253 µM
  relative viability: 0.767
ABC-1; first compound 0.8 µM
  relative viability: 1.12
ABC-1; first compound 2.53 µM
  relative viability: 0.568
NCI-H2347; first compound 0.08 µM
  relative viability: 0.609
NCI-H2347; first compound 0.253 µM
  relative viability: 0.496
NCI-H2347; first compound 0.8 µM
  relative viability: 0.593
NCI-H2347; first compound 2.53 µM
  relative viability: 0.414
COR-L 105; first compound 0.08 µM
  relative viability: 0.85
COR-L 105; first compound 0.253 µM
  relative viability: 0.659
COR-L 105; first compound 0.8 µM
  relative viability: 0.719
COR-L 105; first compound 2.53 µM
  relative viability: 0.65
LCLC-97TM1; first compound 0.08 µM
  relative viability: 1.05
LCLC-97TM1; first compound 0.253 µM
  relative viability: 0.686
LCLC-97TM1; first compound 2.53 µM
  relative viability: 0.449
NCI-H460; first compound 0.08 µM
  relative viability: 0.943
NCI-H460; first compound 0.253 µM
  relative viability: 0.46
NCI-H460; first compound 0.8 µM
  relative viability: 0.649
NCI-H460; first compound 2.53 µM
  relative viability: 0.433
CAL-12T; first compound 0.08 µM
  relative viability: 0.984
CAL-12T; first compound 0.253 µM
  relative viability: 0.483
CAL-12T; first compound 0.8 µM
  relative viability: 0.823
CAL-12T; first compound 2.53 µM
  relative viability: 0.381
HOP-62; first compound 0.08 µM
  relative viability: 0.888
HOP-62; first compound 0.253 µM
  relative viability: 0.525
HOP-62; first compound 0.8 µM
  relative viability: 0.501
HOP-62; first compound 2.53 µM
  relative viability: 0.311
NCI-H838; first compound 0.08 µM
  relative viability: 0.685
NCI-H838; first compound 0.253 µM
  relative viability: 0.609
NCI-H838; first compound 0.8 µM
  relative viability: 0.658
NCI-H838; first compound 2.53 µM
  relative viability: 0.558
NCI-H1993; first compound 0.08 µM
  relative viability: 0.635
NCI-H1993; first compound 0.253 µM
  relative viability: 0.625
NCI-H1993; first compound 0.8 µM
  relative viability: 0.691
NCI-H1993; first compound 2.53 µM
  relative viability: 0.789
NCI-H441; first compound 0.08 µM
  relative viability: 1.02
NCI-H441; first compound 0.253 µM
  relative viability: 0.822
NCI-H441; first compound 0.8 µM
  relative viability: 1.09
NCI-H441; first compound 2.53 µM
  relative viability: 0.782
NCI-H522; first compound 0.08 µM
  relative viability: 1.17
NCI-H522; first compound 0.253 µM
  relative viability: 0.851
NCI-H522; first compound 0.8 µM
  relative viability: 0.718
NCI-H522; first compound 2.53 µM
  relative viability: 0.846
NCI-H1437; first compound 0.08 µM
  relative viability: 0.834
NCI-H1437; first compound 0.253 µM
  relative viability: 0.649
NCI-H1437; first compound 0.8 µM
  relative viability: 0.62
NCI-H1437; first compound 2.53 µM
  relative viability: 0.477
NCI-H2023; first compound 0.08 µM
  relative viability: 0.795
NCI-H2023; first compound 0.253 µM
  relative viability: 0.552
NCI-H2023; first compound 0.8 µM
  relative viability: 0.574
NCI-H2023; first compound 2.53 µM
  relative viability: 0.461
NCI-H2009; first compound 0.08 µM
  relative viability: 0.754
NCI-H2009; first compound 0.253 µM
  relative viability: 0.709
NCI-H2009; first compound 0.8 µM
  relative viability: 0.743
NCI-H2009; first compound 2.53 µM
  relative viability: 0.536
PC-3 [JPC-3]; first compound 0.253 µM
  relative viability: 0.76
PC-3 [JPC-3]; first compound 0.8 µM
  relative viability: 0.769
PC-3 [JPC-3]; first compound 2.53 µM
  relative viability: 0.816
A-427; first compound 0.08 µM
  relative viability: 0.804
A-427; first compound 0.253 µM
  relative viability: 0.869
A-427; first compound 0.8 µM
  relative viability: 0.895
A-427; first compound 2.53 µM
  relative viability: 0.745
